How the values were obtained:
[1] = target: T1, PHD2 enzyme (residues 181-417) (Homo sapiens, UniProt Q9GZT9); experiment: Inhibition of PHD2 Enzyme (LC/MS detection of hydroxylated peptide); assay type: biochemical; details: 5 nM enzyme, 1 μM biotin-labeled peptide, 2 μM 2-oxoglutarate, 60 min pre-incubation, pH 7.3; -log(IC50), IC50 molar; read-out: Inhibition of PHD2 (pIC50) (converted)
T1 construct: The IC50 values for the PHD2 enzyme (residues 181-417) were determined
Experimental: The IC50 values for the PHD2 enzyme (residues 181-417) were determined by mixing increasing amounts of an inhibitor with a fixed amount of enzyme (5 nM, final concentration) and Biotin-labeled peptide (Biotin-Asp-Leu-Glu-Met-Leu-Ala-Pro-Tyr-Ile-Pro-Met-Asp-Asp-Asp-Phe-Gln-Leu, 1 μM final concentration) and 2-oxyglutarate (2 μM final concentration) in 50 mM HEPES, 50 mM KCl, 0.5 mM TCEP, 2 μM FeCl2, 0.1 mg/mL BSA, at pH 7.3. The reaction was conducted by pre-incubating the enzyme in the presence of the inhibitor for 60 minutes at room temperature. The activity of the free enzyme was measured by adding the peptide, the 2-oxoglutarate, and ascorbic acid (1 mM final concentration). The enzymatic activity was quenched after 60 minutes by adding an excess of a tight binding inhibitor to the assay mixture. The amount of product released was measured by using a LC/MS system (Agilent HPLC with Applied Biosystems API3000 Mass Spectrometer). Data were analyzed using the classical isotherm equation for the determination of IC50 values and are reported in Table 1, below, as pIC50, i.e., −log(IC50), where IC50 is molar concentration of the test compound at 50% inhibition.
(§1) Table 1 lists biological data for some of the compounds shown in the examples, where larger pIC50 and pEC50 values represent higher potency or activity, respectively. The IC50 data (reported in Table 1 as pIC50) were obtained using the enzyme-based assay described in the specification under the heading “Inhibition of PHD2 Enzyme.” The EC50 data (reported in Table 1 as pEC50) were obtained using the cell-based assay described in the specification under the heading “Cell-based HIF-α Stabilization Assay.”

[2] = test system: HIF1a protein content in H9c2 rat cardiomyocytes; experiment: Cell-based HIF-α Stabilization Assay (HIF1a ELISA); details: H9c2 cells, 24 hours compound incubation, concentration giving 50% of desferrioxamine maximum response, -log(EC50), EC50 molar, read-out: Stabilization of HIF-α (pEC50) (converted)
Experimental: H9c2 rat cardiomyocytes (ATCC) were seeded in 96-well tissue culture microplates and cultured for 24 hours prior to addition of compounds (11 point range of serial dilutions) or DMSO vehicle. After 24 hours of compound incubation, whole cell extracts were prepared by lysing cells in cell extraction buffer containing protease and phosphatase inhibitors (Meso-Scale Discovery). HIF1a protein content was assessed by ELISA (Meso-Scale Discovery) and expressed as % relative to the maximum response obtained from the positive control, desferrioxamine (Sigma-Aldrich). EC50 for each compound was obtained by curve-fitting using XLfit4 MicroSoft Excel curve-fitting software to calculate the compound concentration that results in 50% of the desferrioxamine maximum response.
as §1

T1 sequence (Q9GZT9 181-417): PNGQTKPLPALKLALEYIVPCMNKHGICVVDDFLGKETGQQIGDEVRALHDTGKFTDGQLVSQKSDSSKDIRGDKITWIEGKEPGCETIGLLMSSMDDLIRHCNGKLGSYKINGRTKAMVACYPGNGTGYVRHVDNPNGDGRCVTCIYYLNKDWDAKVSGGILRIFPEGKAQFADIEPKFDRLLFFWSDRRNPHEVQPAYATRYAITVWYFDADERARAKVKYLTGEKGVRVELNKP

IC50 [1] [µM] | Structure (SMILES) | EC50 [2] [µM]
0.0631 | N#Cc1ccc(CNC(=O)c2ncccc2O)cc1 [Example 1, N-(4-cyanobenzyl)-3-hydroxypicolinamide] | 10
3.16 | N#Cc1cccc(CNC(=O)c2ncccc2O)c1 [Example 2, N-(3-cyanobenzyl)-3-hydroxypicolinamide, reference compound] | 
1 | N#Cc1ccc(CNC(=O)c2ncccc2O)cn1 [Example 3, N-((6-cyanopyridin-3-yl)methyl)-3-hydroxypicolinamide] | 
0.02 | Cc1cc(C#N)ccc1CNC(=O)c1ncccc1O [Example 4, N-(4-cyano-2-methylbenzyl)-3-hydroxypicolinamide] | 7.94
0.0316 | N#Cc1ccc(CNC(=O)c2ncccc2O)c(F)c1 [Example 5, N-(4-cyano-2-fluorobenzyl)-3-hydroxypicolinamide] | 7.94
0.0316 | N#Cc1ccc(CNC(=O)c2ncccc2O)cc1F [Example 6, N-(4-cyano-3-fluorobenzyl)-3-hydroxypicolinamide] | 6.31
3.98 | N#Cc1ccc(CNC(=O)c2ncccc2O)c(C(F)(F)F)c1 [Example 7, N-(4-cyano-2-(trifluoromethyl)benzyl)-3-hydroxypicolinamide] | 
0.0126 | Cc1cc(C#N)cc(C)c1CNC(=O)c1ncccc1O [Example 10, N-(4-cyano-2,6-dimethylbenzyl)-3-hydroxypicolinamide] | 3.16
0.0398 | Cc1cc(CNC(=O)c2ncccc2O)c(C)cc1C#N [Example 12, N-(4-cyano-2,5-dimethylbenzyl)-3-hydroxypicolinamide] | 25.1
0.0158 | Cc1cc(C#N)c(F)cc1CNC(=O)c1ncccc1O [Example 13, N-(4-cyano-5-fluoro-2-methylbenzyl)-3-hydroxypicolinamide] | 10
0.0126 | Cc1c(CNC(=O)c2ncccc2O)ccc(C#N)c1F [Example 14, N-(4-cyano-3-fluoro-2-methylbenzyl)-3-hydroxypicolinamide] | 12.6
0.0251 | N#Cc1ccc(CNC(=O)c2ncccc2O)c(Cl)c1 [Example 15, N-(2-chloro-4-cyanobenzyl)-3-hydroxypicolinamide] | 12.6
0.316 | Cc1cc(C#N)ccc1CNC(=O)c1ncc(C#N)cc1O [Example 17, 5-cyano-N-(4-cyano-2-methylbenzyl)-3-hydroxypicolinamide] | 50.1
0.398 | N#Cc1ccc(CNC(=O)c2ncccc2O)nc1 [Example 24, N-((5-cyanopyridin-2-yl)methyl)-3-hydroxypicolinamide] | 7.94
0.02 | Cc1cc(C#N)ccc1CNC(=O)c1ncc(F)cc1O [Example 35, N-(4-cyano-2-methylbenzyl)-5-fluoro-3-hydroxypicolinamide] | 25.1
0.0398 | Cc1cc(C#N)ccc1CNC(=O)c1ncc(Cl)cc1O [Example 36, 5-chloro-N-(4-cyano-2-methylbenzyl)-3-hydroxypicolinamide] | 25.1
0.01 | COc1cnc(C(=O)NCc2ccc(C#N)cc2C)c(O)c1 [Example 38, N-(4-cyano-2-methylbenzyl)-3-hydroxy-5-methoxypicolinamide] | 7.94

Further lines, the molecule ahead of its results:

Structure (SMILES) | IC50 [1] [µM] | EC50 [2] [µM]
CCN1CCN(C(=O)c2cnc(C(=O)NCc3ccc(C#N)cc3C)c(O)c2)CC1 [Example 8, N-(4-cyano-2-methylbenzyl)-5-(4-ethylpiperazine-1-carbonyl)-3-hydroxypicolinamide] | 0.1 | 12.6
CCN1CCN(C(=O)c2cnc(C(=O)N[C@@H]3CCc4cc(C#N)ccc43)c(O)c2)CC1 [Example 9, (R)—N-(5-cyano-2,3-dihydro-1H-inden-1-yl)-5-(4-ethylpiperazine-1-carbonyl)-3-hydroxypicolinamide] | 0.0501 | 12.6
Cc1cnc(C(=O)NCc2c(C)cc(C#N)cc2C)c(O)c1 [Example 11, N-(4-cyano-2,6-dimethylbenzyl)-3-hydroxy-5-methylpicolinamide] | 0.0316 | 7.94
N#Cc1ccc(CNC(=O)c2ncc(C#N)cc2O)cc1 [Example 16, 5-cyano-N-(4-cyanobenzyl)-3-hydroxypicolinamide] | 0.251 | 6.31
N#Cc1ccc2c(c1)CCCC2NC(=O)c1ncccc1O (centres unmarked) [Example 18, N-(6-cyano-1,2,3,4-tetrahydronaphthalen-1-yl)-3-hydroxypicolinamide] | 1.26 | 50.1
N#Cc1ccc2c(c1)CC[C@H]2NC(=O)c1ncccc1O [Example 19, (R)—N-(5-cyano-2,3-dihydro-1H-inden-1-yl)-3-hydroxypicolinamide] | 0.01 | 6.31
N#Cc1ccc2c(c1)CC[C@H]2NC(=O)c1ncccc1O [Example 20, (R)—N-(5-cyano-2,3-dihydro-1H-inden-1-yl)-3-hydroxypicolinamide] | 0.0126 | 
N#Cc1ccc2c(c1)CC[C@@H]2NC(=O)c1ncccc1O [Example 21, (S)—N-(5-cyano-2,3-dihydro-1H-inden-1-yl)-3-hydroxypicolinamide] | 2.51 | 50.1
N#Cc1ccc2c(c1)OCC2NC(=O)c1ncccc1O (centres unmarked) [Example 22, N-(6-cyano-2,3-dihydrobenzofuran-3-yl)-3-hydroxypicolinamide] | 0.0398 | 7.94
Cc1cnc(C(=O)N[C@@H]2CCc3cc(C#N)ccc32)c(O)c1 [Example 23, (R)—N-(5-cyano-2,3-dihydro-1H-inden-1-yl)-3-hydroxy-5-methylpicolinamide] | 0.0316 | 7.94
Cc1cc(C#N)cc(C)c1CNC(=O)c1ncc(Cl)cc1O [Example 25, 5-chloro-N-(4-cyano-2,6-dimethylbenzyl)-3-hydroxypicolinamide] | 0.02 | 12.6
Cc1cc(C#N)cc(C)c1CNC(=O)c1ncc(C#N)cc1O [Example 26, 5-cyano-N-(4-cyano-2,6-dimethylbenzyl)-3-hydroxypicolinamide] | 0.0251 | 12.6
Cc1cc(C#N)cc(C)c1CNC(=O)c1ncc(F)cc1O [Example 27, N-(4-cyano-2,6-dimethylbenzyl)-5-fluoro-3-hydroxypicolinamide] | 0.0158 | 6.31
Cc1cc(C#N)cc(C)c1CNC(=O)c1ncc(C(F)(F)F)cc1O [Example 28, N-(4-cyano-2,6-dimethylbenzyl)-3-hydroxy-5-(trifluoromethyl)picolinamide] | 0.0501 | 15.8
COc1cnc(C(=O)NCc2c(C)cc(C#N)cc2C)c(O)c1 [Example 29, N-(4-cyano-2,6-dimethylbenzyl)-3-hydroxy-5-methoxypicolinamide] | 0.01 | 1.58
N#Cc1ccc2c(c1)CC[C@H]2NC(=O)c1ncc(F)cc1O [Example 30, (R)—N-(5-cyano-2,3-dihydro-1H-inden-1-yl)-5-fluoro-3-hydroxypicolinamide] | 0.0158 | 15.8
N#Cc1ccc2c(c1)CC[C@H]2NC(=O)c1ncc(Cl)cc1O [Example 31, (R)-5-chloro-N-(5-cyano-2,3-dihydro-1H-inden-1-yl)-3-hydroxypicolinamide] | 0.0316 | 25.1
N#Cc1ccc2c(c1)CC[C@H]2NC(=O)c1ncc(C(F)(F)F)cc1O [Example 32, (R)—N-(5-cyano-2,3-dihydro-1H-inden-1-yl)-3-hydroxy-5-(trifluoromethyl)picolinamide] | 0.126 | 39.8
COc1cnc(C(=O)N[C@@H]2CCc3cc(C#N)ccc32)c(O)c1 [Example 33, (R)—N-(5-cyano-2,3-dihydro-1H-inden-1-yl)-3-hydroxy-5-methoxypicolinamide] | 0.00794 | 6.31
N#Cc1cnc(C(=O)N[C@@H]2CCc3cc(C#N)ccc32)c(O)c1 [Example 34, (R)-5-cyano-N-(5-cyano-2,3-dihydro-1H-inden-1-yl)-3-hydroxypicolinamide] | 0.0398 | 12.6
Cc1cc(C#N)ccc1CNC(=O)c1ncc(C(F)(F)F)cc1O [Example 37, N-(4-cyano-2-methylbenzyl)-3-hydroxy-5-(trifluoromethyl)picolinamide] | 0.251 | 

Source: patent US20200277262A1, “N-(CYANO-SUBSTITUTED BENZYL OR PYRIDINYLMETHYL)-3-HYDROXYPICOLINAMIDE DERIVATIVES” (Takeda Pharmaceutical Company Limited, priority 2017, published 2020)
